Assays:
[1] = test system: Primary human hepatic stellate cells; assay: TGFβ1-induced Col1a1 gene expression in primary human hepatic stellate cells (RT-qPCR); format: cell-based; conditions: for Col1a1 gene expression, in words: primary human hepatic stellate cells from three donors, 3 ng/mL TGFβ1, 24 h
Procedure: Primary human hepatic stellate cells were obtained from Samsara Sciences based on the following criteria for selecting donors: adult age (between 18 and 50 years), normal BMI (>18.5 and <25), and absence of confounding liver disease. Cells grown in Complete HSC Medium to ˜80% confluence in T75 or T150 flasks below passage 10 were seeded into sterile, collagen I coated, 96-well optical plastic microplates (ThermoScientific, 152036) at 6000 cells per well ([…]) and incubated overnight at 37° C., 5% CO2 in a humidified incubator in DMEM with 2% Fetal Bovine Serum and 1% Antibiotic-Antimycotic.
After the overnight incubation, plates were removed from the incubator and the medium was gently pipetted off and washed twice with 150 μL per well DPBS. The DPBS was removed and the pretreatment medium (±single amino acid dropout, 1×HMDB DMEM+1% Antibiotic-Antimycotic, 10 mM HEPES, ±supplemental amino acid dose; see experiment for medium composition) was applied to the cells at 150 μL per well. Plates were returned to the incubator for 10.5 hours.
After 10.5 hour pretreatment, the medium was removed from the cells, and the same pretreatment medium, now supplemented with 3 ng/mL TGFβ1, was applied. Each plate contained 3 ng/mL TGFβ1 in 1× human plasma amino acid (HMDB or PAA) concentration medium, 0 ng/mL in 1×HMDB, and 3 ng/mL TGFβ1+20 μM Silybin in 1×HMDB to serve as controls. Plates were then incubated for 24 hours at 37° C., 5% CO2.
After 24 hour stimulus, supernatant was removed and frozen at −80° C. in two separate aliquots. The cells were then washed with 125 μL per well Buffer FCW (FastLane Cell Multiplex NR Kit, Qiagen, 216713). The wash buffer was immediately removed and 50 μL of Cell Processing Mix (containing genomic DNA Wipeout buffer) was applied to lyse cells, incubating for 10 minutes at room temperature. RNA lysate was then transferred to 96-well qPCR plates, sealed, and gDNA was digested on thermal cycler at 75° C. for 5 minutes. RNA lysate was frozen at −80° C.
Each 20 μL one-step RT-qPCR reaction contained 4 μL of RNA lysate. Gene expression of Col1a1, Timp2, and Gapdh were multiplexed using the HEX, Cy5, and FAM fluorescent channels, respectively, with commercially available primer-probe mixes (the Human Col1a1 Primer-Probe Set, HEX; the Human Timp2 Primer-Probe Set, Cy5; and the Human Gapdh Primer-Probe Set, FAM from IDT). Gene expression was evaluated using the ΔΔCq method within each single amino acid dropout and supplementation by normalizing to its own 1×HMDB concentration.

[2] = test system: LX-2 hepatic stellate cells; assay: TGFβ1-induced fibrogenic gene expression (Col1a1, Acta2, Timp2) in LX-2 cells, qRT-PCR; format: cell-based; conditions: TGFβ1 5 ng/mL, combinations at 40× HMDB concentrations, N-acetylcysteine 10 mM

Row | Compound | Col1a1 gene expression, in words [1] | Col1a1 Fold Expression Relative to Control, Mean ([1]; second donor, normalized to Gapdh, Conc. 153 μM (baseline)) [fold] | Col1a1 gene expression, in words [2] | Timp2 gene expression, in words [2]
1 | CC(C)[C@H](N)C(=O)O [Valine, L-Valine] | did not significantly change |  |  | 
2 | N=C(N)NCCC[C@H](N)C(=O)O [Arginine, L-Arginine] | did not significantly change |  |  | 
3 | NC(=O)CC[C@H](N)C(=O)O [Glutamine, L-Glutamine] | decreased Col1a1 gene expression in two of three donors |  |  | 
4 | CC(C)C[C@H](N)C(=O)O [Leucine, L-Leucine] | did not significantly change | 1.01 |  | 
5 | CC(=O)N[C@@H](CS)C(=O)O [N-acetylcysteine] | significantly reduced Col1a1 gene expression in all three donors |  | reduced | reduced
6 | CC[C@H](C)[C@H](N)C(=O)O [Isoleucine, L-Isoleucine] | did not significantly change |  |  | 

From patent publication US20180169045A1, “AMINO ACID COMPOSITIONS AND METHODS FOR THE TREATMENT OF LIVER DISEASES” (AXCELLA HEALTH INC., priority 2016, published 2018)
